The text below walks through data of patent publication US10597409B2, “Water-soluble triazapyridinophane-based complexing agents and corresponding fluorescent lanthanide complexes” (CISBIO BIOASSAYS, priority 2015, dated 2020).

The nature of series [1]: Photophysical measurements of the lanthanide complexes (absorption, emission, brightness, lifetime). The format is physicochemical.
Series [2] in a line: Solubility in H2O (biological and buffer media). The format is physicochemical. As to conditions: for Solubility in H2O: yes/no.

In the case of `O=C(O)CN1Cc2cccc(n2)CN(CC(=O)O)Cc2cccc(n2)CN(CC(=O)O)Cc2cccc(n2)C1` [Pyridinophane], the “Absorption λmax” value in series [1] is listed as 267 nm. In addition, in series [1] (in H2O), the “Brightness ε × Φ (H2O)” value worked out at 564 and the “Lifetime τH2O” value is recorded as 0.78 ms. Moreover, in series [2], the “Solubility in water (biological and buffer media)” value is given as “soluble in water”; the “Solubility in H2O” value was “yes”.

With `COC(=O)COc1ccc(C#Cc2cc3nc(c2)CN(CC(=O)O)Cc2cc(C#Cc4ccc(OCC(=O)OC)cc4)cc(n2)CN(CC(=O)O)Cc2cc(C#Cc4ccc(OCCCN)cc4)cc(n2)CN(CC(=O)O)C3)cc1` [Complex 62], the “Absorption λmax” value in series [1] came out at 320 nm. Moreover, in series [2], the “Solubility in water (biological and buffer media)” value is given as “insoluble in water”; the “Solubility in H2O” value is “no”.

For the molecule `COC(=O)COc1cc(OC)c(-c2cc3nc(c2)CN(CC(=O)O)Cc2cc(-c4c(OC)cc(OCC(=O)OC)cc4OC)cc(n2)CN(CC(=O)O)Cc2cc(-c4ccc(OCCCN)cc4)cc(n2)CN(CC(=O)O)C3)c(OC)c1` [Complex 63], in series [1], the “Absorption λmax” value came out at 328 nm. For the same molecule, in series [2], the “Solubility in water (biological and buffer media)” value is “insoluble in water”; the “Solubility in H2O” value is reported as “no”.
